From ChEMBL document CHEMBL1154800, “TDAE-assisted synthesis of new imidazo[2,1-b]thiazole derivatives as anti-infectious agents” (2010)
Values after ≈ are worked out from the molar mass of the structure shown. Active and inactive are the calls of the source. The rule behind the calls is not given here.

Assays:
Escherichia coli [1] = assay: Antimicrobial activity against Escherichia coli ATCC 10536 after 24 hrs by microplate assay; type: functional
Staphylococcus aureus [2] = assay: Antimicrobial activity against Staphylococcus aureus ATCC 6538 after 24 hrs by microplate assay; type: functional
Nakaseomyces glabratus [3] = assay: Antimicrobial activity against Candida glabrata ATCC 90030 by disk diffusion method; type: functional
Escherichia coli [4] = assay: Antimicrobial activity against Escherichia coli ATCC 10536 by disk diffusion method; type: functional
Pseudomonas aeruginosa [5] = assay: Antimicrobial activity against Pseudomonas aeruginosa ATCC 15442 by disk diffusion method; type: functional
Candida albicans [6] = assay: Antimicrobial activity against Candida albicans ATCC 2091 by disk diffusion method; type: functional
Pichia kudriavzevii [7] = assay: Antimicrobial activity against Candida krusei ATCC 6258 by disk diffusion method; type: functional
Nakaseomyces glabratus [8] = assay: Antimicrobial activity against Candida glabrata ATCC 90030 after 48 hrs by microplate assay; type: functional; details: ATCC 90030, 48 h
Pichia kudriavzevii [9] = assay: Antimicrobial activity against Candida krusei ATCC 6258 after 48 hrs by microplate assay; type: functional; details: ATCC 6258, 48 h
Staphylococcus aureus [10] = assay: Antimicrobial activity against Staphylococcus aureus ATCC 6538 assessed as minimum microbial concentration after 24 hrs by microplate assay; type: functional
Candida tropicalis [11] = assay: Antimicrobial activity against Candida tropicalis IP 2031 by disk diffusion method; type: functional
Enterococcus hirae [12] = assay: Antimicrobial activity against Enterococcus hirae ATCC 10541 by disk diffusion method; type: functional
Candida albicans [13] = assay: Antimicrobial activity against Candida albicans ATCC 2091 after 48 hrs by microplate assay; type: functional; details: ATCC 2091, 48 h
Staphylococcus aureus [14] = assay: Antimicrobial activity against Staphylococcus aureus ATCC 6538 by disk diffusion method; type: functional
Candida tropicalis [15] = assay: Antimicrobial activity against Candida tropicalis IP 2031 after 48 hrs by microplate assay; type: functional; details: IP 2031, 48 h
Candida albicans [16] = assay: Antimicrobial activity against Candida albicans ATCC 2091 assessed as minimum microbial concentration after 24 hrs by microplate assay; type: functional
Nakaseomyces glabratus [17] = assay: Antimicrobial activity against Candida glabrata ATCC 90030 assessed as minimum microbial concentration after 48 hrs by microplate assay; type: functional
Pichia kudriavzevii [18] = assay: Antimicrobial activity against Candida krusei ATCC 6258 assessed as minimum microbial concentration after 48 hrs by microplate assay; type: functional
Candida tropicalis [19] = assay: Antimicrobial activity against Candida tropicalis IP 2031 assessed as minimum microbial concentration after 24 hrs by microplate assay; type: functional
Escherichia coli [20] = assay: Antimicrobial activity against Escherichia coli ATCC 10536 after 24 hrs assessed as minimum microbial concentration by microplate assay; type: functional
Pseudomonas aeruginosa [21] = assay: Antimicrobial activity against Pseudomonas aeruginosa ATCC 15442 after 24 hrs by microplate assay; type: functional, organism-based
Enterococcus hirae [22] = assay: Antimicrobial activity against Enterococcus hirae ATCC 10541 after 24 hrs by microplate assay; type: functional, organism-based

| Compound | diameter of the inhibition zone (DIZ) (Nakaseomyces glabratus [3]) | diameter of the inhibition zone (DIZ) (Escherichia coli [4]) | diameter of the inhibition zone (DIZ) (Pseudomonas aeruginosa [5]) | diameter of the inhibition zone (DIZ) (Candida albicans [6]) | diameter of the inhibition zone (DIZ) (Pichia kudriavzevii [7]) | MIC (Nakaseomyces glabratus [8]) | MIC (Pichia kudriavzevii [9]) | Activity (Staphylococcus aureus [10]) | diameter of the inhibition zone (DIZ) (Candida tropicalis [11]) | diameter of the inhibition zone (DIZ) (Enterococcus hirae [12]) | MIC (Candida albicans [13]) | MIC (Staphylococcus aureus [2]; ATCC 6538, 24 h) | diameter of the inhibition zone (DIZ) (Staphylococcus aureus [14]) | MIC (Candida tropicalis [15]) | also measured |
| --- | --- | --- | --- | --- | --- | --- | --- | --- | --- | --- | --- | --- | --- | --- | --- |
| COLISTIN | – | – | – | – | – | – | – | – | – | – | – | – | – | – | MIC (Escherichia coli [1]): 8.12 µg/mL; MIC (Staphylococcus aureus [2]): 0.4 µg/mL |
| O=C1Nc2ccccc2C1(O)Cc1nc2sccn2c1[N+](=O)[O-] (stereo not drawn) | inactive | inactive | 9 mm | inactive | inactive | > 500 µg/mL | > 500 µg/mL | 500 µg/mL | 8 mm | inactive | 500 µg/mL (≈ 1510 µM) | 500 µg/mL (≈ 1510 µM) | 10 mm | 62.5 µg/mL (≈ 189 µM) | – |
| O=[N+]([O-])c1c(CCl)nc2sccn12 | 18 mm | 14 mm | 11 mm | 16 mm | 20 mm | 62.5 µg/mL (≈ 287 µM) | 62.5 µg/mL (≈ 287 µM) | 250 µg/mL | 25 mm | 11 mm | 62.5 µg/mL (≈ 287 µM) | 125 µg/mL (≈ 574 µM) | 18 mm | 15.6 µg/mL (≈ 71.7 µM) | Activity (Candida albicans [16]): 62.5 µg/mL; Activity (Nakaseomyces glabratus [17]): 62.5 µg/mL; Activity (Pichia kudriavzevii [18]): 62.5 µg/mL; MIC (Escherichia coli [1]; ATCC 10536, 24 h): 125 µg/mL (≈ 574 µM); Activity (Candida tropicalis [19]): 15.6 µg/mL; Activity (Escherichia coli [20]): 250 µg/mL |
| CN1C(=O)C(O)(Cc2nc3sccn3c2[N+](=O)[O-])c2ccccc21 (stereo not drawn) | inactive | inactive | inactive | inactive | inactive | – | – | – | 12 mm | inactive | – | – | inactive | 125 µg/mL (≈ 363 µM) | – |
| O=[N+]([O-])c1c(CBr)nc2sccn12 | 20 mm | 9 mm | 11 mm | 17 mm | 23 mm | 125 µg/mL (≈ 477 µM) | 62.5 µg/mL (≈ 238 µM) | 250 µg/mL | 29 mm | 11 mm | 125 µg/mL (≈ 477 µM) | 125 µg/mL (≈ 477 µM) | 18 mm | 15.6 µg/mL (≈ 59.5 µM) | Activity (Candida albicans [16]): 125 µg/mL; Activity (Nakaseomyces glabratus [17]): 250 µg/mL; Activity (Pichia kudriavzevii [18]): 62.5 µg/mL; Activity (Candida tropicalis [19]): 15.6 µg/mL |
| Cc1nc2sccn2c1[N+](=O)[O-] | inactive | inactive | inactive | inactive | inactive | > 500 µg/mL | > 500 µg/mL | – | 8 mm | inactive | > 500 µg/mL | – | inactive | 31.2 µg/mL (≈ 170 µM) | – |
| CCOC(=O)/C=C/c1nc2sccn2c1[N+](=O)[O-] | inactive | inactive | inactive | inactive | inactive | – | – | – | 21 mm | inactive | – | – | inactive | 15.6 µg/mL (≈ 58.4 µM) | – |
| COC(=O)C(O)(Cc1nc2sccn2c1[N+](=O)[O-])C(F)(F)F (stereo not drawn) | inactive | inactive | inactive | inactive | inactive | – | – | – | 33 mm | inactive | – | – | inactive | 3.9 µg/mL (≈ 11.5 µM) | – |
| GENTAMICIN | – | – | – | – | – | – | – | – | – | – | – | – | – | – | MIC (Pseudomonas aeruginosa [21]): 8.12 µg/mL; inhibition zone (IZ) (Escherichia coli [4]): 19 mm; inhibition zone (IZ) (Pseudomonas aeruginosa [5]): 19 mm; inhibition zone (IZ) (Enterococcus hirae [12]): 18 mm; MIC (Enterococcus hirae [22]): 25 µg/mL; inhibition zone (IZ) (Staphylococcus aureus [14]): 20 mm |
| CC(=O)N1C(=O)C(O)(Cc2nc3sccn3c2[N+](=O)[O-])c2ccccc21 (stereo not drawn) | inactive | inactive | inactive | inactive | inactive | – | – | 62.5 µg/mL | 14 mm | inactive | – | 31.2 µg/mL (≈ 83.8 µM) | 16 mm | 14 µg/mL (≈ 37.6 µM) | – |
| C[C@@H]1[C@H](O)[C@@H](C)/C=C/C=C/C=C/C=C/C=C/C=C/C=C/[C@H](O[C@@H]2O[C@H](C)[C@@H](O)[C@H](N)[C@@H]2O)C[C@@H]2O[C@](O)(C[C@@H](O)C[C@@H](O)[C@H](O)CC[C@@H](O)C[C@@H](O)CC(=O)O[C@H]1C)C[C@H](O)[C@H]2C(=O)O [AMPHOTERICIN B] | 22 mm | – | – | 22 mm | 18 mm | 0.31 µg/mL (≈ 0.335 µM) | 0.62 µg/mL (≈ 0.671 µM) | – | 8 mm | – | 0.16 µg/mL (≈ 0.173 µM) | – | – | 12.5 µg/mL (≈ 13.5 µM) | – |
